Values of other authors, collected in patent US8101779B2, “Enantioselective synthesis of (+) and (–)-2-[1-(2,6-dichlorophenoxy)-ethyl]-1,3-diazacyclopent-2-ene” (University of Kentucky Research Foundation, priority 2008, dated 2012).

Compound	dose at which the effect of lowering mean arterial blood pressure is apparent (effect apparent at doses as low as)	dose at which lowering of mean arterial blood pressure is not seen (effect not seen even at doses as high as)
CC(Oc1c(Cl)cccc1Cl)C1=NCCN1 (single isomer, unassigned; (+)) [(+)-lofexidine, (+) 2-[1-(2,6-dichlorophenoxy)-ethyl]1,3-diazacyclopent-2-ene]	≤ 0.561 µg/kg	
CC(Oc1c(Cl)cccc1Cl)C1=NCCN1 (single isomer, unassigned; (-)) [(−)-lofexidine, (−)-2-[1-(2,6-dichlorophenoxy)-ethyl]-1,3-diazacyclopent-2-ene]		> 10 µg/kg
